{
  "source": "patent US20240358692A1",
  "about": "“TREATMENT OF SCLERODERMA” (Aisa Pharma, Inc., priority 2023, published 2024)",
  "system": "participants with SSc-RP",
  "assay": "Average severity of weekly RP attacks (VAS 0-10)",
  "type": "in vivo, human",
  "settings": "Tadalafil 5 mg; for Average Severity of Weekly Symptomatic RP Attacks, Change from Baseline, Mean / Average Severity of Weekly Symptomatic RP Attacks, Change from Baseline, Median / Average Severity of Weekly Symptomatic RP Attacks, Percent Change from Baseline, Mean / Average Severity of Weekly Symptomatic RP Attacks, Percent Change from Baseline, Median: 2nd Baseline RCS subgroup, ITT Part A, last 7 days of dosing period",
  "excerpt": "The absolute change in average severity of weekly RP attacks (VAS 0-10 cm scale) from baseline to the end of each Dosing Period was and will be a secondary outcome variable. The sponsor-developed participant-informed diary will be used to record data. Average severity of weekly RP attacks is defined as the total severity scores of RP attacks divided by total number of RP attacks within the last 7 days of each dosing period. Total severity scores of RP attacks during the last 7 days of screening period divided by the total number of RP attacks will be used as baseline for the analysis of all periods. The variable will be calculated similar to frequency data as before.",
  "key": {"[1]": {"settings": "all attacks, by Baseline RCS: second subgroup of Table C-7, ITT Part A"}},
  "data": [
    {"smiles": "CN1CC(=O)N2[C@H](c3ccc4c(c3)OCO4)c3[nH]c4ccccc4c3C[C@@H]2C1=O", "note": "[Tadalafil]", "values": [
      {"measurement": "Average Severity of Weekly Symptomatic RP Attacks, Change from Baseline, Mean", "result": "−0.60"},
      {"measurement": "Average Severity of Weekly Symptomatic RP Attacks, Change from Baseline, Median", "result": "−0.60"},
      {"measurement": "Average Severity of Weekly Symptomatic RP Attacks, Percent Change from Baseline, Mean", "result": "−10.43", "unit": "%"},
      {"measurement": "Average Severity of Weekly Symptomatic RP Attacks, Percent Change from Baseline, Median", "result": "−10.43", "unit": "%"},
      {"measurement": "Average Severity of Weekly Symptomatic RP Attacks, Change from Baseline, Mean", "setting": "Excluding Outliers", "result": "−1.32"},
      {"measurement": "Average Severity of Weekly Symptomatic RP Attacks, Change from Baseline, Median", "setting": "Excluding Outliers", "result": "−1.32"},
      {"measurement": "Average Severity of Weekly Symptomatic RP Attacks, Percent Change from Baseline, Mean", "setting": "Excluding Outliers", "result": "−22.01", "unit": "%"},
      {"measurement": "Average Severity of Weekly Symptomatic RP Attacks, Percent Change from Baseline, Median", "setting": "Excluding Outliers", "result": "−22.01", "unit": "%"},
      {"measurement": "Average Severity (0-10) of weekly RP attacks, Mean", "setting": "[1]", "result": 7.02},
      {"measurement": "Average Severity (0-10) of weekly RP attacks, Median", "setting": "[1]", "result": 7.02},
      {"measurement": "Average severity of weekly RP attacks, Change from Baseline, Mean", "setting": "[1]", "result": "−0.47"},
      {"measurement": "Average severity of weekly RP attacks, Change from Baseline, Median", "setting": "[1]", "result": "−0.47"},
      {"measurement": "Average severity of weekly RP attacks, Percent Change from Baseline, Mean", "setting": "[1]", "result": "−8.97", "unit": "%"},
      {"measurement": "Average severity of weekly RP attacks, Percent Change from Baseline, Median", "setting": "[1]", "result": "−8.97", "unit": "%"}
    ]}
  ]
}
